# Reference: ChEMBL document CHEMBL1155973, “Disubstituted pyrimidines as Lck inhibitors” (Bioorg Med Chem Lett, 2009)
# Experiments:
# [1] = target: T1, Tyrosine-protein kinase Lck (Homo sapiens, UniProt P06239); assay: Inhibition of Lck
# [2] = system: Jurkat; assay: Inhibition of antigen-stimulated IL-2 production in human Jurkat cells expressing MART-1 antigen specific TCR; type: functional, cell-based
# [3] = target: T1, Tyrosine-protein kinase Lck; assay: Inhibition of Lck kinase activity
# T1 sequence (P06239 whole entry): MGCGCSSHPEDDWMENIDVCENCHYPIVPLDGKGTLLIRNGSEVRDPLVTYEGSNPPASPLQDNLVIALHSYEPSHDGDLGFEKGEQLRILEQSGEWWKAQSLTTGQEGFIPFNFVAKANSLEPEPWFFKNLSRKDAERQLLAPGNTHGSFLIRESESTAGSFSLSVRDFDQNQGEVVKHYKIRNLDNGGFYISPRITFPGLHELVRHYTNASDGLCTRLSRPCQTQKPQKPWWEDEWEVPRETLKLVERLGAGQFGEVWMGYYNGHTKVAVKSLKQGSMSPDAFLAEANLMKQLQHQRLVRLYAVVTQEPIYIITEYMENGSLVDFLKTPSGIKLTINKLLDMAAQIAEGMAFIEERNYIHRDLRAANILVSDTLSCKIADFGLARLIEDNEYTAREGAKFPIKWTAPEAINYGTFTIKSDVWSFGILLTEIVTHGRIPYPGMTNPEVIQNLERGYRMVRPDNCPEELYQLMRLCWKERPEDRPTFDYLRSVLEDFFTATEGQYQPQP
Compound,IC50 [1] [nM],"IC50 ([2]; Homo sapiens, Jurkat) [nM]",IC50 [3] [nM],IC50 ([2]; jurkat) [nM]
Cc1ccc2ncn(-c3ccnc(N[C@@H](C)c4ccccc4)n3)c2c1,58,–,58,–
CNC(=O)N1CCCC(C(C)Nc2nccc(-n3cnc4ccccc43)n2)C1 (centres undefined),242,–,–,–
CC(Nc1nccc(-n2cnc3ccccc32)n1)C1CN(C(=O)Nc2ccc3ccccc3c2)CCN1C (centres undefined),75.2,> 1000,–,–
C[C@H](Nc1nccc(-n2cnc3cc(-c4ccnc(N)n4)ccc32)n1)[C@@H]1CN(C(=O)Nc2cccc3ccccc23)CCN1C,0.07,16,–,–
CC(Nc1nccc(-n2cnc3ccccc32)n1)C1CN(Cc2ccccc2)CCN1C (centres undefined),501,> 10000,–,–
Cc1ccc2c(c1)ncn2-c1ccnc(N[C@@H](C)c2ccccc2)n1,128,–,128,–
C[C@H](Nc1nccc(-n2cnc3cc(-c4ccncc4)ccc32)n1)[C@@H]1CN(C(=O)Nc2cccc3ccccc23)CCN1C,0.12,8,–,–
CC(Nc1nccc(-n2cnc3ccccc32)n1)C1CN(C(=O)Nc2cccc3ccccc23)CCN1Cc1ccccc1 (centres undefined),2.6,> 1000,–,–
c1ccc(CNc2nccc(-n3cnc4ccccc43)n2)cc1,827,–,–,–
CC(Nc1nccc(-n2cnc3ccccc32)n1)C1CCCN(C(=O)OCc2ccccc2)C1 (stereo in doubt; 12a),144,–,–,–
C[C@H](Nc1nccc(-n2cnc3ccccc32)n1)C1CCCCC1,243,–,–,–
O=C(Nc1cccc2ccccc12)N1CCNC(CNc2nccc(-n3cnc4ccccc43)n2)C1 (centres undefined),110,–,–,–
O=C(c1ccc2ccccc2c1)N1CCCC(CNc2nccc(-n3cnc4ccccc43)n2)C1 (centres undefined),106,–,–,–
CC(Nc1nccc(-n2cnc3ccccc32)n1)C1CN(S(C)(=O)=O)CCN1C (centres undefined),22.5,> 1000,–,–
CC(Nc1nccc(-n2cnc3ccccc32)n1)C1CN(C(=O)Nc2cccc3ccccc23)CCN1S(=O)(=O)c1ccccc1 (centres undefined),26.5,> 10000,–,–
C[C@H](Nc1nccc(-n2cnc3cc(-c4ccnc(N)n4)ccc32)n1)c1ccccc1,1.5,111,–,–

Compound,IC50 [1] [nM],"IC50 ([2]; Homo sapiens, Jurkat) [nM]",IC50 [3] [nM],IC50 ([2]; jurkat) [nM]
CCCCCCN1CCN(C(=O)Nc2cccc3ccccc23)C[C@H]1[C@H](C)Nc1nccc(-n2cnc3ccccc32)n1,1.8,> 1000,–,–
CC(Nc1nccc(-n2cnc3ccccc32)n1)C1CCCN(C(=O)Cc2ccccc2)C1 (centres undefined),800,–,–,–
C[C@H](Nc1nccc(-n2cnc3ccccc32)n1)[C@@H]1CN(C(=O)Nc2cccc3ccccc23)CCN1c1ccncc1,0.2,546,–,–
CC(Nc1nccc(-n2cnc3ccccc32)n1)C1CN(C(=O)Nc2cccc3ccccc23)CCN1C(=O)OCc1ccccc1 (centres undefined),> 1000,> 10000,–,–
CC(Nc1nccc(-n2cnc3ccccc32)n1)C1CCCN(C(=O)OCc2ccccc2)C1 (stereo in doubt; 12b),2720,–,–,–
Cc1cc2ncn(-c3ccnc(N[C@@H](C)c4ccccc4)n3)c2cc1C,2070,–,2070,–
CCN1CCN(c2ccc3c(c2)ncn3-c2ccnc(N[C@@H](C)[C@@H]3CN(C(=O)Nc4cccc5ccccc45)CCN3C)n2)C1=O,0.4,42,–,–
O=C(c1ccc2ccccc2c1)N1CCOC(CNc2nccc(-n3cnc4ccccc43)n2)C1 (centres undefined),203,–,–,–
CN1CCN(C(=O)c2ccc3ccccc3c2)CC1CNc1nccc(-n2cnc3ccccc32)n1 (centres undefined),10,–,–,–
CC(Nc1nccc(-n2cnc3ccccc32)n1)C1CCCN(C(=O)Oc2ccccc2)C1 (centres undefined),46,–,–,–
CC(Nc1nccc(-n2cnc3ccccc32)n1)C1CCCN(C(=O)Nc2ccc3ccccc3c2)C1 (centres undefined),40,–,–,–
CCOC(=O)CN1CCN(C(=O)Nc2cccc3ccccc23)C[C@H]1[C@H](C)Nc1nccc(-n2cnc3ccccc32)n1,0.45,847,–,–
Cc1nc2ccccc2n1-c1ccnc(N[C@@H](C)c2ccccc2)n1,> 20000,–,> 20000,–
CCN1CCN(c2ccc3c(c2)ncn3-c2ccnc(N[C@@H](C)c3ccccc3)n2)C1=O,1,167,–,–
CC(Nc1nccc(-n2cnc3ccccc32)n1)C1CCCN(C(=O)Nc2ccccc2)C1 (centres undefined),11,–,–,–
C[C@H](Nc1nccc(-n2cnc3cc(-c4ccncc4)ccc32)n1)c1ccccc1,3,98,–,–

# Other lines, results leading:
IC50 [1] [nM],"IC50 ([2]; Homo sapiens, Jurkat) [nM]",IC50 [3] [nM],IC50 ([2]; jurkat) [nM],Compound
11.8,> 1000,–,–,CC(Nc1nccc(-n2cnc3ccccc32)n1)C1CN(C(=O)Nc2cccc3ccccc23)CCN1S(C)(=O)=O (centres undefined)
0.4,–,–,–,C[C@H](Nc1nccc(-n2cnc3ccccc32)n1)[C@H]1CCCN(C(=O)Nc2cccc3ccccc23)C1
0.25,–,–,361,"CC(Nc1nccc(-n2cnc3ccccc32)n1)C1CN(C(=O)Nc2cccc3ccccc23)CCN1C (single isomer, unassigned; diastereomer 1)"
1,–,–,–,CC(Nc1nccc(-n2cnc3ccccc32)n1)C1CCCN(C(=O)Nc2cccc3ccccc23)C1 (racemic)
47,–,–,–,C[C@H](Nc1nccc(-n2cnc3ccccc32)n1)c1cccc([N+](=O)[O-])c1
650,–,–,–,O=C(OCc1ccccc1)N1CCCC(CNc2nccc(-n3cnc4ccccc43)n2)C1 (centres undefined)
1770,–,–,–,C[C@@H](Nc1nccc(-n2cnc3ccccc32)n1)c1ccccc1
0.2,538,–,–,CC(C)CN1CCN(C(=O)Nc2cccc3ccccc23)C[C@H]1[C@H](C)Nc1nccc(-n2cnc3ccccc32)n1
153,–,–,–,C[C@H](Nc1nccc(-n2cnc3ccccc32)n1)c1ccccc1
0.06,111,–,–,C[C@H](Nc1nccc(-n2cnc3ccccc32)n1)[C@@H]1CN(C(=O)Nc2cccc3ccccc23)CCN1C
> 20000,–,–,–,O=C(OCc1ccccc1)N1CCCCC1CNc1nccc(-n2cnc3ccccc32)n1 (centres undefined)
1260,–,–,–,CC(Nc1nccc(-n2cnc3ccccc32)n1)C1CCCN(C(=O)NC2CCCCC2)C1 (centres undefined)
> 20000,–,–,–,O=C(OCc1ccccc1)N1CCC(CNc2nccc(-n3cnc4ccccc43)n2)CC1
> 1000,> 10000,–,–,CC(Nc1nccc(-n2cnc3ccccc32)n1)C1CNCCN1C (centres undefined)
17.4,–,–,> 1000,"CC(Nc1nccc(-n2cnc3ccccc32)n1)C1CN(C(=O)Nc2cccc3ccccc23)CCN1C (single isomer, unassigned; diastereomer 2)"
115,> 10000,–,–,CC(=O)N1CCN(C(=O)Nc2cccc3ccccc23)C[C@H]1[C@H](C)Nc1nccc(-n2cnc3ccccc32)n1
> 1000,> 10000,–,–,CC(Nc1nccc(-n2cnc3ccccc32)n1)C1CN(C)CCN1C (centres undefined)
> 10000,–,–,–,O=C(Nc1cccc2ccccc12)N1CCC(CNc2nccc(-n3cnc4ccccc43)n2)C1 (centres undefined)
0.07,154,–,–,CCN1CCN(C(=O)Nc2cccc3ccccc23)C[C@H]1[C@H](C)Nc1nccc(-n2cnc3ccccc32)n1
